Series [1] concerns Aspergillus terreus ATCC MYA-3633 (strain I). Briefly: MIC and checkerboard assay, azoles + compounds 1-5. It is filed as cell-based. The note with it: in combination with POS. Here is the method: (§1) These compounds were serially diluted (two-fold dilutions) horizontally on the plate in 100 μL of RPMI medium. A diluted yeast culture (25 μL of a fungal stock with OD600 of 0.125 in 10 mL of RPMI medium, which achieves a final inoculum size of around 1-5×10^3 CFU/mL) was plated across the plate (100 μL per well), making a final volume of 200 μL total per well.
(§2) The appropriate range of concentrations for each compound was determined based on their corresponding MIC values against each fungal strain. The inoculum size for yeast and filamentous fungi were the same as in the MIC experiments described in section 2.2. The 96-well plates were incubated at 35° C. for 48 h for yeasts and 72 h for the Aspergillus strain before visual inspection for growth. […] The combinational effect of the two tested compounds were considered synergistic (abbreviated SYN) if FICI<0.5, additive (abbreviated ADD) if 0.5<FICI<4, and antagonistic if FICI>4 (TABLES 2-4).

For series [2], the system named is C. albicans ATCC 64124 (strain F). Briefly: MIC and checkerboard assay, azoles + compounds 1-5. Type of series: cell-based, Candida albicans. The note with it: for fold reduction in MIC (combination vs alone): reduction for the labelled drug; for MICalone: drug alone; for MIC in combination: MIC of the labelled drug. Here is the method: as §1, §2
Series [3] has as its system C. albicans ATCC 10231 (strain B). Briefly: MIC and checkerboard assay, azoles + compounds 1-5. It is filed as cell-based, Candida albicans. How it is done: as §1, §2
Series [4] deals with C. glabrata ATCC 2001 (strain H). Briefly: MIC and checkerboard assay, azoles + compounds 1-5. It is filed as cell-based, Candida glabrata. How it is done:
as §1, §2

For series [5], the system named is C. albicans ATCC 64124 (strain F) biofilm. Briefly: Biofilm disruption assay (XTT, SMIC99), azoles + compound 2. It is filed as cell-based, Candida albicans. The note with it: for FICI / Interp.: biofilm. Here is the method: In order to investigate the synergistic effect of azoles and our compounds on inhibiting biofilm formation of C. albicans ATCC 64124 (strain F), we performed a biofilm disruption assay in a checkerboard setup and used XTT [2,3-bis(2-methoxy-4-nitro-5-sulfophenyl)-2H-tetrazolium-5-carboxanilide] reduction to examine the metabolic activity of the biofilm. Briefly, C. albicans ATCC 64124 (strain F) was grown overnight in YEPD broth at 35° C. The culture was then diluted to an OD600 of 0.12 (equivalent to 1×10^6 CFU/mL) and 100 μL was placed into each well of a 96-well plate. The cells were incubated at 37° C. for 24 h for growth. The following day, the spent medium containing planktonic cells was aspirated and each wells were carefully washed three times with sterile phosphate buffer saline (PBS). […] The negative control (medium only) and the positive control (biofilm plus medium) wells were also included in the same 96-well plate. The plates were then incubated at 37° C. statically for additional 24 h and then washed with sterile PBS. 100 μL of a XTT (0.5 mg/mL)/menadione (1 μM) solution was added to each well, covered with aluminum foil, and incubated for 2 h at 37° C. Then, 80 μL of the colored supernatant from each well was transferred to a new 96-well plate, and the absorption was read at OD490. The percent metabolic activity of the formed biofilm at various drug concentration combinations was calculated by dividing the metabolic activity of biofilm formed for that well by that of the biofilm formed in the growth control well (in the absence of any drug). For these experiments, the sessile MIC (SMIC99) was determined, which is defined as the drug concentration required to inhibit the metabolic activity of biofilm by 99% compared to the growth control. The assay for each combination was performed in duplicates.
On the technique in general: Tetrazolium assays rely on reduction of a dye to a coloured formazan, in cell work by metabolically active cells.

Series [6] deals with BEAS-2B cells. Briefly: Mammalian cytotoxicity assay, azoles and compound 2. It is filed as cell-based, human. An excerpt: (§3) David K. Orren (University of Kentucky, Lexington, Ky.) and Prof. David J. Feola (University of Kentucky, Lexington, Ky.), respectively.
In series [7] the test system is HEK-293 cells. The description is as above. Type of series: cell-based, human.
Description: as §3

For series [8], the system named is J774A.1 cells. The description is as above.
Description: as §3

For series [9], the system named is C. albicans ATCC 90819 (strain G). Briefly: MIC and checkerboard assay, azoles + compounds 1-5. It is filed as cell-based, Candida albicans. How it is done: as §1, §2
Series [10] concerns C. albicans ATCC 64124 (strain F). Briefly: Time-kill assay, azoles + compound 2. It is filed as cell-based, Candida albicans. How it is done: Each sample was incubated at 35° C. with shaking at 200 rpm. At various time points (0, 3, 6, 9, 12, and 24 h), 100 μL aliquots were taken from each sample and serially diluted (10-fold dilutions) in sterile ddH2O. 100 μL of each dilution was spread onto PDA plates and incubated at 35° C. for 48 h before colony counts were determined (FIGS. 2A-B). At the end of the 24-h experiment, 50 μL of 1 mM sterile resazurin solution was added to each sample for visual comparison of growth. Each experiment was performed in duplicate.

[11] abbreviates: azole 16 μg/mL + 8 μg/mL compound 2.
[12] abbreviates: azole at any concentration + 32 μg/mL compound 2.
Where [13] appears, read: drug alone, up to highest concentration tested (azoles 16 μg/mL, compound 2 64 μg/mL).
The mark [14] stands for this setting: combination with POS at 8×MICcombo.
The mark [15] stands for this setting: combination with VOR at 8×MICcombo.

Molecules are shown by their SMILES. Entries after “also recorded” stand apart in the source; their conditions may differ.

Consider `COc1ccc(C(=O)CCCN2CCC(O)(c3ccc(Br)cc3)CC2)cc1` [Compound 5], for which the “combinational effect (FICI interpretation)” value (“combinational effect” for short) was “synergistic” in series [1]; “synergistic interactions” in series [2] (in combination with POS); “strong additive effect” in [2] (in combination with VOR); “Partial synergy” in series [3] (in combination with VOR); “partial synergy” in series [4] (in combination with POS). The “fold reduction in MIC (combination vs alone)” value in [2] (combination compound 5 + VOR) is given as 16 fold. Further, the MICalone in series [2] was over 128 µg/mL. For the same compound, in series [2] (in combination with POS), the FICI was 0.13.
Regarding `CCC(C)n1ncn(-c2ccc(N3CCN(c4ccc(OCC5COC(Cn6cncn6)(c6ccc(Cl)cc6Cl)O5)cc4)CC3)cc2)c1=O` (stereo not drawn) [ITC, itraconazole], in series [2] (combination compound 2 + ITC), the MIC in combination came out at 2 µg/mL and the “fold reduction in MIC (combination vs alone)” value turned out to be 16 fold.
Regarding `C[C@@H](c1ncncc1F)[C@](O)(Cn1cncn1)c1ccc(F)cc1F` [VOR, voriconazole], the “SMIC alone (μg/mL) Azole” value in series [5] (azole alone, sessile cells) was over 32 µg/mL. Moreover, the “SMIC combo (μg/mL) Azole” value in [5] (azole in combination with compound 2) came out at 0.5 µg/mL. Further, the MIC in combination in [2] (combination compound 5 + VOR) stood at 2 µg/mL. Also, the cytotoxicity result is listed as “no toxicity” in series [6] (setting [11]); “no toxicity” in series [6] (setting [12]); “No cytotoxic effect” in series [6] (setting [13]); “no toxicity” in [7] (setting [11]); “no toxicity” in [7] (setting [12]); “No cytotoxic effect” in series [7] (setting [13]). For the same compound, the cytotoxicity entry is reported as “no toxicity” in [8] (setting [11]) and “No cytotoxic effect” in series [8] (drug alone, any concentration tested (up to 16 μg/mL)).
Take `O=C(CCCN1CCC(O)(c2ccc(Br)cc2)CC1)c1ccc(Br)cc1` [Compound 4]: the “combinational effect” value in series [2] (in combination with KTC) is “partial synergy”; in series [2] (in combination with POS) it was “synergistic interactions”; in series [2] (in combination with VOR), “Partial synergy”; in series [3] (in combination with KTC), “partial synergy”; in series [4] (in combination with POS), “synergistic; also recorded: strong synergy”.
`O=C(CCCN1CCC(O)(c2ccc(Br)cc2)CC1)c1ccc(F)cc1` [Compound 2, bromperidol]: the “combinational effect” value in [1] is reported as “synergy; also recorded: synergistic”; in series [9] (in combination with POS), “synergy”; in series [9] (in combination with VOR), “synergy”; in [2] (in combination with ITC) it was “partial synergy”; in [2] (in combination with KTC), “partial synergy”; in series [2] (in combination with POS), “synergy”. In addition, the “combinational effect” value in series [2] (in combination with VOR) is “synergy”; in [3] (in combination with ITC), “partial synergy”; in series [3] (in combination with KTC), “partial synergy”; in series [3] (in combination with POS) it was “partial synergy”; in series [3] (in combination with VOR), “partial synergy”; in series [4] (in combination with POS), “partial synergy”. The “combinational effect” value in [4] (in combination with VOR) was “partial synergy”. The FICI in series [5] (in combination with POS) is given as 1.02; in series [5] (in combination with VOR), 1.02; in series [2] (in combination with ITC), 0.56; in series [2] (in combination with POS), 0.16. Besides, the Interp. entry in [5] (in combination with POS) and in series [5] (in combination with VOR) was “ADD*” throughout. Also, in series [5] (compound alone, sessile cells), the “SMIC alone (μg/mL) Cpd” value is over 128 µg/mL. The “SMIC combo (μg/mL) Cpd” value in series [5] (compound in combination with POS) and in series [5] (compound in combination with VOR) was 128 µg/mL in each case. Moreover, the MIC in combination in series [2] (combination compound 2 + ITC) amounted to 64 µg/mL; in series [2] (combination compound 2 + POS), 4 µg/mL. Further, the MICalone in series [2] came to 128 µg/mL. Further, the cell survival in series [8] (drug alone at 16 μg/mL) is 72±14%; in [8] (drug alone at 32 μg/mL), 50±7%; in series [8] (drug alone at 64 μg/mL), 30±4%. Moreover, the “highest concentration at which no cytotoxicity was observed” value in [8] (drug alone, stated for all three cell lines (BEAS-2B, HEK-293, J774A.1), J774A.1 limiting) was determined as 8 µg/mL. Further, the “CFU/mL throughout 24 h” value in [10] (setting [14]) is reported as “around 1×10^5 CFU/mL”. Moreover, the time-kill effect entry in series [10] (setting [14]) and in series [10] (setting [15]) was “fungistatic effect” each time. Also, in series [10] (setting [15]), the “reduction in CFU/mL over 24 h” value is “about 1 log10 unit”. For the same compound, the “increase in CFU/mL” value in series [10] (drug alone at the concentration of the 8×MICcombo sample, 24 h) is on record as “about 1 order of magnitude”.
For `O=C(CCCN1CCC(O)(c2ccc(Br)cc2)CC1)c1ccc(Cl)cc1` [Compound 3], the “combinational effect” value in series [2] (in combination with KTC) is given as “partial synergy”; in series [2] (in combination with POS), “synergy; also recorded: synergistic interactions”; in [2] (in combination with VOR), “partial synergy; also recorded: synergistic interactions”; in series [3] (in combination with KTC), “partial synergy”; in series [3] (in combination with POS) it was “partial synergy”; in [3] (in combination with VOR), “partial synergy”.
In the case of `O=C(CCCN1CCC(O)(c2ccc(Br)cc2)CC1)c1ccccc1` [Compound 1], the “combinational effect” value in series [2] (in combination with POS) was “synergy; also recorded: synergistic interactions”; in series [2] (in combination with VOR), “partial synergy”; in [3] (in combination with POS), “partial synergy”; in series [3] (in combination with VOR), “partial synergy”; in series [4] (in combination with POS), “partial synergy”; in series [4] (in combination with VOR), “strong additive effect”.

Values taken from patent US20190015400A1, “Antifungal Compositions” (priority 2017, published 2019).
